Experimental findings from ChEMBL document CHEMBL1129749, “Nudicauline and elatine as potent norditerpenoid ligands at rat neuronal alpha-bungarotoxin binding sites: importance of the 2-(methylsuccinimido)benzoyl moiety for neuronal nicotinic acetylcholine receptor binding” (J Med Chem, 1996) are described below.

The assay deals with Neuronal acetylcholine receptor subunit alpha-7 (Rattus norvegicus, UniProt Q05941). The experiment in a line: Binding affinity of Norditerpenoid Alkaloids at rat neuronal alpha7-type nicotinic acetylcholine receptor.
Sequence of Neuronal acetylcholine receptor subunit alpha-7 (Q05941 whole entry): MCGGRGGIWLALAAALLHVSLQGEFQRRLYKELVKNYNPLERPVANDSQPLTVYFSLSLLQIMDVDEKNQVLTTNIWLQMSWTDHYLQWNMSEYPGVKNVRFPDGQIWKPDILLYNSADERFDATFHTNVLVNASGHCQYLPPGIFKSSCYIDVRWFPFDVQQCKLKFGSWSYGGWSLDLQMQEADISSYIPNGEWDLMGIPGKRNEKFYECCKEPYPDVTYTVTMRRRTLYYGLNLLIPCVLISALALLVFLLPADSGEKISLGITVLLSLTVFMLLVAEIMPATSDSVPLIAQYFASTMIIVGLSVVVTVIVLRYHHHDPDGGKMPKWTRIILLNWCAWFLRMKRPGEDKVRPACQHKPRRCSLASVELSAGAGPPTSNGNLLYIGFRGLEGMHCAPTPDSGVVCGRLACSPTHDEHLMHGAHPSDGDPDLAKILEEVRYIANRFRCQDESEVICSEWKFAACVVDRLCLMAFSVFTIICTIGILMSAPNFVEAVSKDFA
Compound `CCN1C[C@]2(OC(=O)c3ccccc3N)CC[C@H](OC)[C@]34C1[C@@H](CC23)[C@@]1(O)C[C@H](OC)[C@H]2CC4[C@]1(O)[C@H]2OC` (some centres undefined) came in with an IC50 of 6.8 µM.

`CCN1C[C@]2(OC(=O)c3ccccc3NC(C)=O)CC[C@H](OC)[C@@]34[C@@H]2C[C@@H]([C@@H]13)[C@@]1(O)C[C@H](OC)[C@H]2C[C@@H]4[C@]1(O)[C@H]2OC`: the IC50 turned out to be 96 µM.

Regarding `CCN1C[C@]2(COC)CC[C@H](O)[C@@]34C5C[C@@H]6[C@@H](OC)C[C@](O)(C(CC23)C14)C5[C@H]6OC(C)=O` (some centres undefined) [CONDELPHINE], the IC50 was 1.6 µM.

`CCN1C[C@]2(COC)CC[C@H](OC)[C@]34C5C[C@@H]6[C@@H](OC)C[C@@]7(OCO[C@@]7(C13)[C@@H](O)C24)C5[C@H]6OC` (some centres undefined) [DELCORINE]: the IC50 turned out to be 53 µM.

Consider `CCN1C[C@]2(COC)CC[C@H](O)[C@]34C1[C@@](O)([C@@H](OC)[C@H]23)[C@@]1(O)C[C@H](OC)[C@H]2C[C@@H]4[C@@H]1[C@H]2OC` [DELSOLINE], for which the IC50 was determined as 19 µM.

With `CCN1C[C@]2(C)CC[C@H](OC)[C@@]34C1[C@]1(OCO[C@@]15C[C@H](OC)[C@H]1C[C@]3(O)[C@@H]5[C@H]1OC)[C@@H](OC(C)=O)[C@H]24` [DELTALINE], the IC50 came to 110 µM.

`CCN1C[C@]2(COC(=O)c3ccccc3N3C(=O)C[C@H](C)C3=O)CC[C@H](OC)[C@@]34C1[C@@]1(OCO[C@@]15C[C@H](OC)[C@H]1C[C@@H]3[C@@H]5[C@H]1OC)[C@@H](OC)[C@H]24` [ELATINE] showed an IC50 of 0.0061 µM. Against the preceding compound, the IC50 is about 18000-fold lower.

Take `CCN1C[C@]2(CO)CC[C@H](OC)[C@@]34[C@@H]5C[C@H]6[C@H](OC)[C@@H]5[C@](O)(C[C@@H]6OC)[C@](O)([C@@H](OC)[C@H]23)[C@@H]14` [LYCOCTONINE]: the IC50 came to 10 µM. This IC50 is about 1600-fold higher than that of the compound before.

For the compound `CCN1C[C@]2(COC(=O)c3ccccc3N3C(=O)C[C@H](C)C3=O)CC[C@H](OC)[C@]34C5C[C@@H]6[C@@H](OC)C[C@@](O)(C5[C@H]6OC(C)=O)[C@](O)(C13)[C@@H](OC)C24` (some centres undefined) [NUDICAULINE], the IC50 was found to be 0.0017 µM.
